# Laboratory results taken from ChEMBL document CHEMBL1129890, “Synthesis and evaluation of dual action cephalosporins as elastase inhibitors” (Bioorg Med Chem Lett, 1997).
# How the values were obtained:
# [1] = Hydrolytic stability was expressed as t1/2; type: physicochemical
# [2] = Steady state velocity of inhibitor concentration required to inhibit porcine pancreatic elastase was determined by using Lineweaver-Burke Plot; design: species or system Sus scrofa
# [3] = Steady state velocity of inhibitor concentration required to inhibit porcine pancreatic elastase was determined by using Dixon Plot; design: species or system Sus scrofa
Compound,half-life [1] [h],IC50 [2] [µM],IC50 [3] [µM]
CO[C@H]1C(=O)N2C(C(=O)OC(C)(C)C)=C(COC(=O)c3ccccc3OC(C)=O)CS(=O)(=O)C12 (some centres undefined),19,0.11,
CO[C@H]1C(=O)N2C(C(=O)OC(C)(C)C)=C(C)CS(=O)(=O)C12 (some centres undefined),,73,11
CO[C@H]1C(=O)N2C(C(=O)OC(C)(C)C)=C(COC(=O)Cc3ccccc3Nc3c(Cl)cccc3Cl)CS(=O)(=O)C12 (some centres undefined),60,0.11,
CC(C)(C)OC(=O)C1=C(COC(=O)Cc2ccccc2Nc2c(Cl)cccc2Cl)CS(=O)(=O)C2[C@@H](Cl)C(=O)N12 (some centres undefined),73,0.18,0.68

# The remaining compounds from weak to strong by IC50 [2], led by results:
half-life [1] [h],IC50 [2] [µM],IC50 [3] [µM],Compound
,35,11,CC1=C(C(=O)OC(C)(C)C)N2C(=O)[C@H](Cl)C2S(=O)(=O)C1 (some centres undefined)
2.3,0.25,0.35,CC(=O)Oc1ccccc1C(=O)OCC1=C(C(=O)OC(C)(C)C)N2C(=O)[C@H](Cl)C2S(=O)(=O)C1 (some centres undefined)
